# Experimental data published in PubChem BioAssay (NCI).
#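 Compound exposure: 48 hours, 5 concentrations, 96-well plates. GI50: concentration for 50% inhibition of growth. Definition used: TGI = concentration required for complete inhibition of growth.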
# How the values were obtained:
# Experiment in all cases: NCI-60 cell line screen, 48 h
# [1] = test system: OVCAR-5 ovarian
# [2] = test system: HS 578T breast
# [3] = test system: SNB-19 CNS
# [4] = test system: 786-0 renal
# [5] = test system: HL-60(TB) leukemia
# [6] = test system: SNB-75 CNS
# [7] = test system: SK-MEL-2 melanoma
# [8] = test system: IGROV1 ovarian
# [9] = test system: UACC-257 melanoma
# [10] = test system: RXF 393 renal
# [11] = test system: UO-31 renal
# [12] = test system: CAKI-1 renal
# [13] = test system: UACC-62 melanoma
# [14] = test system: COLO 205 colon
# [15] = test system: MOLT-4 leukemia
# [16] = test system: SF-268 CNS
# [17] = test system: T-47D breast
# [18] = test system: NCI-H226 lung
# [19] = test system: SF-295 CNS
# [20] = test system: M14 melanoma
# [21] = test system: SK-MEL-28 melanoma
# [22] = test system: NCI-H23 lung
# [23] = test system: SK-MEL-5 melanoma
# [24] = test system: OVCAR-3 ovarian
# [25] = test system: KM12 colon
# [26] = test system: HT29 colon
# [27] = test system: BT-549 breast
# [28] = test system: HCT-116 colon
# [29] = test system: LOX IMVI melanoma
# [30] = test system: MCF7 breast
# [31] = test system: ACHN renal
# [32] = test system: SW-620 colon
# [33] = test system: OVCAR-4 ovarian
# [34] = test system: MALME-3M melanoma
# [35] = test system: NCI-H460 lung
# [36] = test system: HOP-62 NSCLC
# [37] = test system: K-562 leukemia
# [38] = test system: TK-10 renal
# [39] = test system: CCRF-CEM leukemia
# [40] = test system: U251 CNS
# [41] = test system: HCT-15 colon
# [42] = test system: PC-3 prostate
# [43] = test system: EKVX NSCLC
# [44] = test system: HCC-2998 colon
# [45] = test system: HOP-92 NSCLC
# [46] = test system: MDA-MB-231 breast
# [47] = test system: RPMI-8226 leukemia
# [48] = test system: SK-OV-3 ovarian
# [49] = test system: SR leukemia
# [50] = test system: NCI/ADR-RES ovarian
# [51] = test system: A498 renal
# [52] = test system: SN12C renal
# [53] = test system: MDA-MB-435
# [54] = test system: SF-539 CNS
# [55] = test system: NCI-H522 lung
# [56] = test system: OVCAR-8 ovarian
# [57] = test system: A549 NSCLC
# [58] = test system: DU-145 prostate
structure (smiles),measurement,setting,value
Cc1cccc2nc3cccc(C(=O)NCCNCCNCCNC(=O)c4cccc5nc6cccc(C)c6nc45)c3nc12,GI50,[1],0.12 µM
same,TGI,[1],11.1 µM
same,GI50,[2],0.0474 µM
same,TGI,[2],2.24 µM
same,GI50,[3],< 0.01 µM
same,TGI,[3],15.5 µM
same,GI50,[4],< 0.0333 µM
same,TGI,[4],7.74 µM
same,GI50,[5],< 0.0139 µM
same,TGI,[5],1.12 µM
same,GI50,[6],0.181 µM
same,TGI,[6],1.44 µM
same,GI50,[7],< 0.01 µM
same,TGI,[7],0.186 µM
same,GI50,[8],< 0.01 µM
same,TGI,[8],> 39.3 µM
same,GI50,[9],0.0557 µM
same,TGI,[9],1.76 µM
same,GI50,[10],< 0.0149 µM
same,TGI,[10],0.228 µM
same,GI50,[11],0.0238 µM
same,GI50,[12],0.0461 µM
same,TGI,[12],23.2 µM
same,GI50,[13],0.0137 µM
same,TGI,[13],2.01 µM
same,GI50,[14],< 0.01 µM
same,TGI,[14],0.7 µM
same,GI50,[15],< 0.01 µM
same,TGI,[15],14.7 µM
same,GI50,[16],< 0.01 µM
same,TGI,[16],1.7 µM
same,GI50,[17],< 0.0123 µM
same,TGI,[17],8.67 µM
same,GI50,[18],< 0.0128 µM
same,TGI,[18],0.274 µM
same,GI50,[19],< 0.01 µM
same,TGI,[19],1.11 µM
same,GI50,[20],< 0.0241 µM
same,TGI,[20],1.7 µM
same,GI50,[21],0.101 µM
same,TGI,[21],4.37 µM
same,GI50,[22],< 0.012 µM
same,TGI,[22],0.938 µM
same,GI50,[23],< 0.0131 µM
same,TGI,[23],0.851 µM
same,GI50,[24],< 0.01 µM
same,TGI,[24],2.91 µM
same,GI50,[25],< 0.01 µM
same,TGI,[25],3.42 µM
same,GI50,[26],< 0.01 µM
same,TGI,[26],0.254 µM
same,GI50,[27],1.73 µM
same,TGI,[27],6.25 µM
same,GI50,[28],< 0.01 µM
same,TGI,[28],> 35.8 µM
same,GI50,[29],< 0.01 µM
same,TGI,[29],0.53 µM
same,GI50,[30],< 0.01 µM
same,TGI,[30],> 33 µM
same,GI50,[31],< 0.01 µM
same,TGI,[31],10.9 µM
same,GI50,[32],< 0.01 µM
same,TGI,[32],3.5 µM
same,GI50,[33],0.168 µM
same,TGI,[33],5.09 µM
same,GI50,[34],< 0.0302 µM
same,TGI,[34],2.21 µM
same,GI50,[35],< 0.01 µM
same,TGI,[35],0.19 µM
same,GI50,[36],< 0.01 µM
same,TGI,[36],1.19 µM
same,GI50,[37],< 0.01 µM
same,TGI,[37],9.37 µM
same,GI50,[38],< 0.0147 µM
same,TGI,[38],0.846 µM
same,GI50,[39],0.0859 µM
same,TGI,[39],2.86 µM
same,GI50,[40],< 0.01 µM
same,TGI,[40],1.04 µM
same,GI50,[41],0.0268 µM
same,TGI,[41],> 100 µM
same,GI50,[42],< 0.0164 µM
same,TGI,[42],4.63 µM
same,GI50,[43],0.291 µM
same,TGI,[43],16.3 µM
same,GI50,[44],0.0416 µM
same,TGI,[44],0.837 µM
same,GI50,[45],< 0.0317 µM
same,TGI,[45],0.519 µM
same,GI50,[46],0.161 µM
same,TGI,[46],3.93 µM
same,GI50,[47],< 0.01 µM
same,TGI,[47],0.769 µM
same,GI50,[48],0.0933 µM
same,TGI,[48],12.8 µM
same,GI50,[49],< 0.01 µM
same,TGI,[49],1.22 µM
same,GI50,[50],0.296 µM
same,TGI,[50],> 100 µM
same,GI50,[51],< 0.01 µM
same,TGI,[51],0.363 µM
same,GI50,[52],0.0489 µM
same,TGI,[52],14.1 µM
same,GI50,[53],< 0.01 µM
same,TGI,[53],1.41 µM
same,GI50,[54],< 0.0254 µM
same,TGI,[54],4.06 µM
same,GI50,[55],< 0.01 µM
same,TGI,[55],0.159 µM
same,GI50,[56],< 0.01 µM
same,TGI,[56],1.14 µM
O=C1C(Nc2ccc(Br)cc2)=C(I)C(=O)c2ncccc21,GI50,[1],1.58 µM
same,TGI,[1],5.71 µM
same,GI50,[2],1.59 µM
same,TGI,[2],26 µM
same,GI50,[3],1.41 µM
same,TGI,[3],5.16 µM
same,GI50,[4],0.905 µM
same,TGI,[4],2.21 µM
same,GI50,[5],0.96 µM
same,TGI,[5],2.07 µM
same,GI50,[6],1.24 µM
same,TGI,[6],7 µM
same,GI50,[57],2.24 µM
same,TGI,[57],8.18 µM
same,GI50,[7],1.27 µM
same,TGI,[7],4.77 µM
same,GI50,[8],0.678 µM
same,TGI,[8],1.36 µM
same,GI50,[9],0.835 µM
same,TGI,[9],1.95 µM
same,GI50,[10],0.909 µM
same,TGI,[10],1.73 µM
same,GI50,[11],0.641 µM
same,TGI,[11],1.85 µM
same,GI50,[58],1.14 µM
same,TGI,[58],4.26 µM
same,GI50,[12],0.677 µM
same,TGI,[12],1.34 µM
same,GI50,[13],1.16 µM
same,TGI,[13],2.96 µM
same,GI50,[14],1.19 µM
same,TGI,[14],3.49 µM
same,GI50,[15],0.912 µM
same,TGI,[15],3.48 µM
same,GI50,[16],1.13 µM
same,TGI,[16],4.94 µM
same,GI50,[17],0.954 µM
same,TGI,[17],2.24 µM
same,GI50,[18],0.988 µM
same,TGI,[18],2.13 µM
same,GI50,[19],7.56 µM
same,TGI,[19],14.9 µM
same,GI50,[20],0.815 µM
same,TGI,[20],1.93 µM
same,GI50,[21],1.82 µM
same,TGI,[21],6.1 µM
same,GI50,[22],0.829 µM
same,TGI,[22],2.14 µM
same,GI50,[23],0.803 µM
same,TGI,[23],1.51 µM
same,GI50,[24],0.154 µM
same,TGI,[24],0.524 µM
same,GI50,[25],2.05 µM
same,TGI,[25],8.41 µM
same,GI50,[26],1.83 µM
same,TGI,[26],9.19 µM
same,GI50,[27],1.85 µM
same,TGI,[27],5.9 µM
same,GI50,[28],0.336 µM
same,TGI,[28],1.08 µM
same,GI50,[29],0.668 µM
same,TGI,[29],1.41 µM
same,GI50,[31],0.738 µM
same,TGI,[31],1.56 µM
same,GI50,[32],0.531 µM
same,TGI,[32],1.51 µM
same,GI50,[33],0.601 µM
same,TGI,[33],1.24 µM
same,GI50,[34],0.731 µM
same,TGI,[34],1.41 µM
same,GI50,[35],1.42 µM
same,TGI,[35],5.01 µM
same,GI50,[36],2.31 µM
same,TGI,[36],8.31 µM
same,GI50,[37],0.499 µM
same,TGI,[37],3.61 µM
same,GI50,[38],3.54 µM
same,TGI,[38],9.74 µM
same,GI50,[39],0.859 µM
same,TGI,[39],2.97 µM
same,GI50,[40],1.32 µM
same,TGI,[40],3.98 µM
same,GI50,[41],0.588 µM
same,TGI,[41],1.79 µM
same,GI50,[42],0.888 µM
same,TGI,[42],6.44 µM
same,GI50,[43],3.08 µM
same,TGI,[43],9.52 µM
same,GI50,[44],3.22 µM
same,TGI,[44],10.4 µM
same,GI50,[45],0.815 µM
same,TGI,[45],1.61 µM
same,GI50,[46],0.806 µM
same,TGI,[46],1.63 µM
same,GI50,[47],0.836 µM
same,TGI,[47],2.12 µM
same,GI50,[48],5.61 µM
same,TGI,[48],11.6 µM
same,GI50,[49],0.314 µM
same,TGI,[49],2.42 µM
same,GI50,[50],1.14 µM
same,TGI,[50],3.32 µM
same,GI50,[51],1.69 µM
same,TGI,[51],8.82 µM
same,GI50,[52],0.828 µM
same,TGI,[52],1.74 µM
same,GI50,[53],0.911 µM
same,TGI,[53],1.72 µM
same,GI50,[54],1.03 µM
same,TGI,[54],2.49 µM
same,GI50,[56],0.809 µM
same,TGI,[56],1.69 µM
